Emax and EC50 data for twelve compounds are collected here from patent US8846760B2, “Dihydronaphthalene and naphthalene derivatives as N-formyl peptide receptor like-1 (FPRL-1) receptor modulators” (Allergan, Inc., priority 2011, dated 2014).

For this assay, the target named is T1, FPRL-1 (Homo sapiens, UniProt P25090).
T1 construct: expressed in transfected cells
T1 sequence (P25090 1-351): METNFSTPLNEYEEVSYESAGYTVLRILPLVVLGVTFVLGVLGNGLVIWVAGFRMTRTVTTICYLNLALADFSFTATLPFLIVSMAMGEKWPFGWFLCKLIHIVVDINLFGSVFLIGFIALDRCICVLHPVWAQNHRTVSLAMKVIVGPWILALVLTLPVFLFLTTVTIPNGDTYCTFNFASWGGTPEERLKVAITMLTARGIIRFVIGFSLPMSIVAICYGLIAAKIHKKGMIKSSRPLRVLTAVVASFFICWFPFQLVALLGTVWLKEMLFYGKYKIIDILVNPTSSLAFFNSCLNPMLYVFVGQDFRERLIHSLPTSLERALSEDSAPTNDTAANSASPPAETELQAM
Put plainly: Compound-induced calcium activity on FLIPR Tetra in CHO-Gα16 cells stably expressing FPRL1. Format: cell-based. The settings on record: for Emax: efficacy, read-out: FPRL-1 Ga16-CHO (eff %); for EC50: tested 0.61 to 10,000 nM, read-out: FPRL-1 Ga16-CHO EC50. The procedure: CHO-Gα16 cells stably expressing FPRL1 were cultured in (F12, 10% FBS, 1% PSA, 400 μg/ml geneticin and 50 μg/ml hygromycin) and HEK-Gqi5 cells stable expressing FPR1 were cultured in (DMEM high glucose, 10% FBS, 1% PSA, 400 μg/ml geneticin and 50 μg/ml hygromycin). In general, the day before the experiment, 18,000 cells/well were plated in a 384-well clear bottom poly-d-lysine coated plate. The following day the screening compound-induced calcium activity was assayed on the FLIPR^Tetra. The drug plates were prepared in 384-well microplates using the EP3 and the MultiPROBE robotic liquid handling systems. Compounds were tested at concentrations ranging from 0.61 to 10,000 nM. Results are expressed as EC50 (nM) and efficacy values.

As to `O=C(O)C1=C(C(=O)Nc2ccc(Br)cc2)CCc2ccccc21` [Compound 6, 2-{[(4-Bromophenyl)amino]carbonyl}-3,4-dihydronaphthalene-1-carboxylic acid], the Emax turned out to be 90% and the EC50 was found to be 383 nM.

In the case of `CC1(C)CC(C(=O)Nc2ccc(Br)cc2)=C(C(=O)O)c2ccccc21` [Compound 3, 2-{[(4-Bromophenyl)amino]carbonyl}-4,4-dimethyl-3,4-dihydronaphthalene-1-carboxylic acid], the Emax came to 95% and the EC50 amounted to 87 nM.

For the compound `O=C(O)C1=C(C(=O)Nc2ccc(Br)cc2)CCc2c1cccc2-c1ccccc1` [Compound 5, 2-{[(4-Bromophenyl)amino]carbonyl}-5-phenyl-3,4-dihydronaphthalene-1-carboxylic acid], the Emax worked out at 100% and the EC50 was 566 nM.

For the compound `O=C(O)C1=C(C(=O)Nc2ccc(Br)cc2)CCc2ccc(Cl)cc21` [Compound 4, 2-{[(4-Bromophenyl)amino]carbonyl}-7-chloro-3,4-dihydronaphthalene-1-carboxylic acid], the Emax is 81% and the EC50 is 777 nM.

Turning to `Cc1ccc(C)c2c1CCC(C(=O)Nc1ccc(Br)cc1)=C2C(=O)O` [Compound 8, 2-{[(4-Bromophenyl)amino]carbonyl}-5,8-dimethyl-3,4-dihydronaphthalene-1-carboxylic acid], the Emax amounted to 93% and the EC50 is 198 nM.

Turning to `CC(C)(C)c1ccc2c(c1)C(C(=O)O)=C(C(=O)Nc1ccc(Br)cc1)CC2` [Compound 2, 2-{[(4-Bromophenyl)amino]carbonyl}-7-tert-butyl-3,4-dihydronaphthalene-1-carboxylic acid], the Emax was 86% and the EC50 is 1320 nM.

In the case of `CC1(C)CCC(C)(C)c2cc(C(=O)Nc3ccc(Br)cc3)c(C(=O)O)cc21` [Compound 10, 3-{[(4-Bromophenyl)amino]carbonyl}-5,5,8,8-tetramethyl-5,6,7,8-tetrahydronaphthalene-2-carboxylic acid], the Emax is 58% and the EC50 is 1560 nM.

Regarding `Cc1cc(C)c2c(c1)C(C(=O)O)=C(C(=O)Nc1ccc(Br)cc1)CC2` [Compound 7, 2-{[(4-Bromophenyl)amino]carbonyl}-5,7-dimethyl-3,4-dihydronaphthalene-1-carboxylic acid], the Emax came out at 95% and the EC50 worked out at 3920 nM.

Take `O=C(Nc1ccc(Br)cc1)c1ccc2ccccc2c1C(=O)O` [Compound 11, 2-{[(4-Bromophenyl)amino]carbonyl}-1-naphthoic acid]: the Emax turned out to be 100% and the concentration for a half-maximal effect (EC50) was found to be 1300 nM.

Consider `CCc1cc(C(=O)Nc2ccc(Br)cc2)c(C(=O)O)c2ccccc12` [Compound 12, 2-{[(4-Bromophenyl)amino]carbonyl}-4-ethyl-1-naphthoic acid], for which the Emax amounted to 95% and the EC50 came to 165 nM.

Consider `O=C(O)c1cc2ccccc2cc1C(=O)Nc1ccc(Br)cc1` [Compound 9, 3-{[(4-Bromophenyl)amino]carbonyl}-2-naphthoic acid], for which the Emax was found to be 92% and the EC50 was 5930 nM.

`CC(C)c1cccc2c1CCC(C(=O)Nc1ccc(Br)cc1)=C2C(=O)O` [Compound 1, 2-{[(4-Bromophenyl)amino]carbonyl}-5-isopropyl-3,4-dihydronaphthalene-1-carboxylic Acid]: the Emax was found to be 80% and the EC50 came to 756 nM.
